Reference: patent US11447504B2, “Macrocyclic chlorine substituted indole derivatives” (Bayer Aktiengesellschaft, priority 2017, dated 2022)
Where a name gives a salt, the structure may show the parent alone. Read-outs that look alike come from different tables or passages of the source.

Tests used:
[1] = tested on: SUDHL5; assay: Induction of cytotoxicity (Assay 6), SUDHL5; conditions: read-out: Cytotox SUDHL5 IC50 (median); SUDHL5 cells, 5 hours, CellTiter-Glo
Experimental: (§9) Assay 6 Induction of Cytotoxicity Upon Treatment of Cells with Selected Compounds
(§10) Therefore, cytotoxicity assays were run in parallel in SUDHL5 and SUDHL10 cells.
(§11) The different cell lines were plated in culture medium (RPMI 1640 [GIBCO #22400-089]supplemented with 10% Fetal Bovine Serum) at a density of 3,300 cells in 30 μL/well in a sterile, solid black, flat bottom, polystyrene, TC-treated 384-well microplate (Corning #3571) using Multidrop Combi Reagent Dispenser. As a control, medium without cells was also added to the plate. Cells were incubated in a humidified incubator at 37° C. overnight. […] Rim wells were excluded. The cells were incubated for 5 hours in a humidified incubator at 37° C. After this incubation, 30 μL of CellTiter-Glo® Luminescent Cell Viability reagent (Promega, G7573) was added to each well using the Multidrop Combi Reagent Dispenser, followed by 15 minutes incubation on a shaker at room temperature. Finally, luminescence was read at 0.1 ms, with a gain of 3000 using the PHERAstar FS microplate reader (BMG Labtech).

[2] = tested on: SUDHL10; assay: Induction of cytotoxicity (Assay 6), SUDHL10; conditions: read-out: Cytotox SUDHL10 IC50 (median); SUDHL10 cells, 5 hours, CellTiter-Glo
[3] = tested on: AMO-1; assay: Antiproliferation assay 7, AMO-1; assay type: cell-based; conditions: AMO-1 cells, 72 hours, CellTiter-Glo; read-out: Antiproli AMO-1 IC50 median
Method in brief: (§1)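 Cells were exposed to compound for 72 hours at 37° C. Viability was measured by CellTiter-Glo luminescence. A day 0 plate read at the start served as the time-zero reference.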

[4] = target: SUDHL10; assay: Induction of caspase-3/7 activity (Assay 4), SUDHL10; assay type: cell-based; conditions: SUDHL10 cells, 3 hours, Caspase-Glo 3/7; read-out: Caspase SUDHL10 EC50 (median)
Method in brief: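 SUDHL10 DLBCL cells treated with compounds for 3 hours at 37 °C in a humidified incubator. Caspase-3/7 activity read with Caspase-Glo 3/7 luminescent reagent. Medium-only background subtracted from all values.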

[5] = target: BCL-2 (Homo sapiens (Human), UniProt P10415); assay: Protein-protein interaction assay BCL-2/Bad BH3 peptide (BCL-2 Assay, TR-FRET); assay type: binding; conditions: read-out: BCL-2 Assay IC50 (median)
Experimental: The dose-dependent inhibition by the compounds described in this invention of the interaction between BCL-2 and the BH3 domain of Bad (both human) was determined using a steady state binding competition assay with time-resolved fluorescence energy transfer (TR-FRET) readout.
(§2) For that, 100-fold concentrated DMSO solutions were prepared by serial dilutions (1:3.4) of a 2 mM stock solution in a clear, 384-well microtiter plate (Greiner Bio-One, Frickenhausen, Germany). From there, 50 nl were transferred in a dark test plate (Greiner Bio-One, Frickenhausen, Germany). […] This was followed by a 10-minute incubation step at 22° C. for pre-equilibration of the putative complex between His-BCL-2 and the compounds.
The mixture was incubated in the dark for one hour at 22° C. and then overnight at 4° C.
(§3) The resulting data (ratio) were normalized, taking 0% inhibition as the mean value of control measurements (usually 32 data points) where all reagents were included. In this case 50 nl DMSO were used instead of compounds. […] IC50 values were determined by regression analysis based on a 4 parameter equation (minimum, maximum, IC50, Hill; Y=Max+(Min−Max)/(1+(X/IC50)^Hill) using the Screener Software (Genedata).

[6] = target: T1, MCL-1 (Homo sapiens (Human), UniProt Q07820, K194A/K197A/R201A); assay: Protein-compound interaction assay (SPR assay 8); assay type: binding; conditions: immobilized MBP-MCL-1, 25° C.
Excerpt: Assay 8 Protein-Compound Interaction Assay (SPR Assay)
The ability of the compounds described in this invention to bind to MCL-1 may be determined using surface plasmon resonance (SPR). This allows for the quantification of binding in terms of the equilibrium dissociation constant (KD [M]), as well as association and dissociation rate constants (kon [1/M 1/s] and koff [1/s], respectively). The measurements may be performed using Biacore® T200 or Biacore® S200 instruments (GE Healthcare).
MBP-MCL-1 was diluted in 1×PBS-P+ (GE Healthcare) and injected on the activated chip surface. Subsequently, a solution of 1 M ethanolamine-HCl (GE Healthcare) was injected to block unreacted groups, resulting in approximately 400-2500 response units (RU) of immobilized protein. A reference surface was generated by treatment with NHS-EDC and ethanolamine-HCl.
The double-referenced sensorgrams were fit to a simple reversible Langmuir 1:1 reaction mechanism as implemented in the Biacore® T200 and S200 evaluation software (T200 evaluation software version 2.0 and S200 evaluation software version 1.0, GE Healthcare).

[7] = tested on: SK-BR-3; assay: Antiproliferation assay 7, SK-BR-3; assay type: cell-based; conditions: SK-BR-3 cells, 72 hours, CellTiter-Glo; read-out: Antiproli SK-BR-3 IC50 median
Experimental: (§4) Assessment of the Anti-Proliferative Effect of Compounds in Different Cell Lines
(§5) The impact of compounds on the proliferation of different cell lines was assessed using the CellTiter-Glo® Luminescent Cell Viability reagent from Promega (G7573).
(§6) In parallel, cells were plated in a reference (day 0) plate for time zero determination.
(§7) Rim wells were excluded. The cells were incubated for 72 hours in a humidified incubator at 37° C. The day 0 plate was measured by adding 30 μL/well of CTG solution (CellTiter-Glo® Luminescent Cell Viability reagent, Promega G7573) to time zero wells in the reference plate followed by a 10 minutes incubation and luminescence reading at 0.1 ms. using the PHERAstar FS microplate reader (BMG Labtech).
(§8) After 72 hours incubation, the treated plates were measured in the same way as the day 0 plate mentioned above.

[8] = target: BCL-XL (Homo sapiens (Human), UniProt Q07817); assay: Protein-protein interaction assay BCL-XL/Bad BH3 peptide (BCL-XL Assay, TR-FRET); assay type: binding; conditions: read-out: BCL-XL Assay IC50 (median)
Experimental: Assay 2 Protein-Protein Interaction Assay: BCL-XL/Bad BH3 Peptide (BCL-XL Assay)
The dose-dependent inhibition by the compounds described in this invention of the interaction between BCL-XL and the BH3 domain of Bad (both human) was determined using a steady state binding competition assay with time-resolved fluorescence energy transfer (TR-FRET) readout.
as §2, with “His-BCL-XL” for “His-BCL-2”
The mixture was incubated in the dark for one hour at 22° C. and then overnight at 4° C. The formation of BCL-XL/Bad complexes was determined by measuring the resonance energy transfer of the anti-His- Eu-cryptate antibody to the streptavidin-XL665 present in the reaction.
as §3

[9] = tested on: MV-4-11; assay: Antiproliferation assay 7, MV-4-11; assay type: cell-based; conditions: MV-4-11 cells, 72 hours, CellTiter-Glo; read-out: Antiproli MV-4-11 IC50 median
Method in brief: as §1

[10] = tested on: SUDHL5; assay: Antiproliferation assay 7, SUDHL5; assay type: cell-based; conditions: SUDHL5 cells, 72 hours, CellTiter-Glo; read-out: Antiproli SUDHL5 IC50 (median)
Method in brief: as §1

[11] = tested on: SUDHL10; assay: Antiproliferation assay 7, SUDHL10; assay type: cell-based; conditions: SUDHL10 cells, 72 hours, CellTiter-Glo; read-out: Antiproli SUDHL10 IC50 (median)
Method in brief: as §1

[12] = target: SUDHL5; assay: Induction of caspase-3/7 activity (Assay 4), SUDHL5; assay type: cell-based; conditions: SUDHL5 cells, 3 hours, Caspase-Glo 3/7; read-out: Caspase SUDHL5 EC50 (median)
Method in brief: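 DLBCL cells treated with compounds for 3 hours at 37° C. Caspase-3/7 activity measured by Caspase-Glo 3/7 luminescence, with medium-only background subtracted.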

[13] = target: T1, MCL-1; assay: Protein-protein interaction assay MCL-1/Noxa BH3 peptide (MCL-1 Assay, TR-FRET); assay type: binding; conditions: read-out: MCL-1 Assay IC50 (median)
[14] = tested on: A2058; assay: Antiproliferation assay 7, A2058; assay type: cell-based; conditions: A2058 cells, 72 hours, CellTiter-Glo; read-out: Antiproli A2058 IC50 median
Experimental: as §4, §5, §6, §7, §8

[15] = tested on: HMC-1-8; assay: Antiproliferation assay 7, HMC-1-8; assay type: cell-based; conditions: HMC-1-8 cells, 72 hours, CellTiter-Glo; read-out: Antiproli HMC-1-8 IC50 median
Method in brief: as §1

[16] = tested on: NCI-H23; assay: Antiproliferation assay 7, NCI-H23; assay type: cell-based; conditions: NCI-H23 cells, 72 hours, CellTiter-Glo; read-out: Antiproli NCI-H23 IC50 median
Experimental: as §4, §5, §6, §7, §8

[17] = tested on: SUDHL10
[18] = tested on: SUDHL5
Experimental: as §9, §10, §11

T1 sequence (Q07820 whole entry K194A/K197A/R201A, looked up): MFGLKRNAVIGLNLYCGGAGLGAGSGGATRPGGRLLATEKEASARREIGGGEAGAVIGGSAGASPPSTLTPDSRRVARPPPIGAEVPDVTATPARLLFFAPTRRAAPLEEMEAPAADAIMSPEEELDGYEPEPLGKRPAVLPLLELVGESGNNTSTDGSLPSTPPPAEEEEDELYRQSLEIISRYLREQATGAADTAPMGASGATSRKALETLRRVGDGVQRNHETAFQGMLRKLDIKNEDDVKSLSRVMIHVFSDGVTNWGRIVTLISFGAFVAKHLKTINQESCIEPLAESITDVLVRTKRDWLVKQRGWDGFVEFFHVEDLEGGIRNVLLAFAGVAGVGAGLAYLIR
Chain of BCL-XL (Q07817 other isoform, or with tags, fused parts or gaps): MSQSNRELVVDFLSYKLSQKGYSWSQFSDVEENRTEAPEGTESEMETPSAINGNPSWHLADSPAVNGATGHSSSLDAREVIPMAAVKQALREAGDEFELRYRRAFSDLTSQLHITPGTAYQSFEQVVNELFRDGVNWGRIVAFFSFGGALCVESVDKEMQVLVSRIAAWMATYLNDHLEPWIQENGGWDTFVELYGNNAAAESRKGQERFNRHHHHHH
Chain of BCL-2 (P10415 other isoform, or with tags, fused parts or gaps): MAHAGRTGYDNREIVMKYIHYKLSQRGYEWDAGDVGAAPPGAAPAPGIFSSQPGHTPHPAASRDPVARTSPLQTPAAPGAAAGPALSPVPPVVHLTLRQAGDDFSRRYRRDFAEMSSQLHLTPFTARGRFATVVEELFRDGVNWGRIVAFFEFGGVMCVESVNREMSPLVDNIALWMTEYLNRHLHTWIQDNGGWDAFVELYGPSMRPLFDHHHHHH

| Molecule | IC50 [1] [nM] | IC50 [2] [nM] | IC50 [3] [nM] | EC50 [4] [nM] | IC50 [5] [nM] | koff (geo mean) [6] [s⁻¹] | kon (geo mean) [6] | Kd ([6]; read-out: KD (geo mean)) [nM] | IC50 [7] [nM] | IC50 [8] [nM] | IC50 [9] [nM] | IC50 [10] [nM] | IC50 [11] [nM] | EC50 [12] [nM] | IC50 [13] [nM] | IC50 [14] [nM] | IC50 [15] [nM] | IC50 [16] [nM] | IC50 [17] [nM] | IC50 [18] [nM] |
| --- | --- | --- | --- | --- | --- | --- | --- | --- | --- | --- | --- | --- | --- | --- | --- | --- | --- | --- | --- | --- |
| 4-chloro-3-ethyl-1-[2-(morpholin-4-yl)ethyl]-7-[3-(naphthalen-1-yloxy)propyl]-1,10,11,12,13,15-hexahydropyrazolo[4′,3′:9,10][1,6]oxazacycloundecino[8,7,6-hi]indole-8-carboxylic acid-N-ethylethanamine Salt (Enantiomer 1) [Example 9] | 290 | 340 | 874 | 330 | > 20000 | 0.0096 | 8.7E6 1/M 1/s | 1.1 | 1080 | > 20000 | 823 | 370 | 270 | 270 | 0.47 |  |  |  |  |  |
| Cc1c2c(nn1C)COCCCCn1c(C(=O)O)c(CCCOc3cccc4ccccc34)c3ccc(Cl)c-2c31 (single isomer, unassigned; enantiomer 1) [Example 26, 4-chloro-2,3-dimethyl-7-[3-(naphthalen-1-yloxy)propyl]-2,10,11,12,13,15-hexahydropyrazolo-[4′,3′:9,10][1,6]oxazacycloundecino[8,7,6-hi]indole-8-carboxylic acid-N-ethylethanamine Salt (Enantiomer 1)] | 460 | 500 | 996 | 410 |  |  |  |  | 3300 |  | 1810 | 580 |  | 350 |  | 14900 | 2890 | 2320 |  |  |
| Cc1nn(C)c2c1-c1cccc3c(CCCOc4cccc5ccccc45)c(C(=O)O)n(c13)CCCCN2Cc1ccccc1 [Example 69, (rac)-8-benzyl-9,11-dimethyl-1-[3-(1-naphthyloxy)propyl]-4,5,6,7,8,9-hexahydropyrazolo[4′,3′:4,5][1,6]diazecino[3,2,1-hi]indole-2-carboxylic Acid] |  |  |  | 22000 |  |  |  |  |  |  |  | 14000 | 6300 | > 33000 | 350 |  |  |  | 32000 | 21000 |
| Cc1nn(C)c2c1-c1cccc3c(CCCOc4cccc5ccccc45)c(C(=O)O)n(c13)CCCCN2 [Example 70, (rac)-9,11-dimethyl-1-[3-(1-naphthyloxy)propyl]-4,5,6,7,8,9-hexahydropyrazolo[4′,3′:4,5][1,6]diazecino[3,2,1-hi]indole-2-carboxylic Acid] |  |  |  | 29000 |  |  |  |  |  |  |  | > 33000 | 15000 | > 33000 | 43 |  |  |  | > 33000 | > 33000 |
| (rac)-4-chloro-3-ethyl-1-[2-(morpholin-4-yl)ethyl]-7-[3-(naphthalen-1-yloxy)propyl]-1,10,11,12,13,15-hexahydropyrazolo[4′,3′:9,10][1,6]oxazacycloundecino[8,7,6-hi]indole-8-carboxylic Acid [Example 8] |  |  | 1180 | 360 |  |  |  |  | 3000 |  | 1100 | 470 |  | 290 | 0.89 |  |  |  | 450 | 350 |
| (rac)-4-chloro-12,12-difluoro-2,3-dimethyl-7-{3-[(naphthalen-1-yl)oxy]propyl}-2,10,11,12,13,15-hexahydropyrazolo[4′,3′:9,10][1,6]oxazacycloundecino[8,7,6-hi]indole-8-carboxylic Acid [Example 55] |  |  | 1710 | 1500 | 18800 |  |  |  |  | > 20000 |  | 620 |  | 510 | 2.3 |  | 5750 |  | 2000 | 840 |
| (rac)-4-chloro-14-(2,2-difluoroethyl)-3-ethyl-7-{3-[(6-fluoronaphthalen-1-yl)oxy]propyl}-2-methyl-10,11,12,13,14,15-hexahydro-2H-pyrazolo[3′,4′:8,9][1,6]diazacycloundecino[10,11,1-hi]indole-8-carboxylic Acid [Example 62] |  |  |  |  |  |  |  |  |  |  |  |  |  | 270 | 2.7 |  |  |  |  | 330 |
